In PMC13195669, “GPR3 Ligands Discovered through Combined Virtual and Conformational Biosensor-Based Screening” (Journal of the American Chemical Society, 2026):

Columns and labels:
GPR3 [1] = target: T1, GPR3 (Homo sapiens, UniProt P46089, INS231ASEIGTGFPFDPHYVEVLGERMHYVDVGPRDGTPVLFLHGNPTSSYVWRNIIPHVAPTHRCIAPDLIGMGKSDKPDLGYFFDDHVRFMDAFIEALGLEEVVLVIHDWGSALGFHWAKRNPERVKGIAFMEFIRPIPTWDEWPEFARETFQAFRTTDVGRKLIIDQNVFIEGTLPMGVVRPLTEVEMDHYREPFLNPVDREPLWRFPNELPIAGEPANIVALVEEYMDWLHQSPVPKLLFWGTPGVLIPPAEAARLAKSLPNCKAVDIGPGLNLLQEDNPDLIGSEIARWLSTLEISGGS); assay: BRET-based conformational GPR3 biosensor (GPR3-HaloTag/Nluc) in HEK293A cells; format: cell-based; settings: for BRET response of GPR3 biosensor (direction, words): HEK293A
T1 construct: ligated to the full-length C-terminus; expressed in transfected cells; some experiments transient
T1 sequence (P46089 with tags, fused parts or gaps with the stated changes): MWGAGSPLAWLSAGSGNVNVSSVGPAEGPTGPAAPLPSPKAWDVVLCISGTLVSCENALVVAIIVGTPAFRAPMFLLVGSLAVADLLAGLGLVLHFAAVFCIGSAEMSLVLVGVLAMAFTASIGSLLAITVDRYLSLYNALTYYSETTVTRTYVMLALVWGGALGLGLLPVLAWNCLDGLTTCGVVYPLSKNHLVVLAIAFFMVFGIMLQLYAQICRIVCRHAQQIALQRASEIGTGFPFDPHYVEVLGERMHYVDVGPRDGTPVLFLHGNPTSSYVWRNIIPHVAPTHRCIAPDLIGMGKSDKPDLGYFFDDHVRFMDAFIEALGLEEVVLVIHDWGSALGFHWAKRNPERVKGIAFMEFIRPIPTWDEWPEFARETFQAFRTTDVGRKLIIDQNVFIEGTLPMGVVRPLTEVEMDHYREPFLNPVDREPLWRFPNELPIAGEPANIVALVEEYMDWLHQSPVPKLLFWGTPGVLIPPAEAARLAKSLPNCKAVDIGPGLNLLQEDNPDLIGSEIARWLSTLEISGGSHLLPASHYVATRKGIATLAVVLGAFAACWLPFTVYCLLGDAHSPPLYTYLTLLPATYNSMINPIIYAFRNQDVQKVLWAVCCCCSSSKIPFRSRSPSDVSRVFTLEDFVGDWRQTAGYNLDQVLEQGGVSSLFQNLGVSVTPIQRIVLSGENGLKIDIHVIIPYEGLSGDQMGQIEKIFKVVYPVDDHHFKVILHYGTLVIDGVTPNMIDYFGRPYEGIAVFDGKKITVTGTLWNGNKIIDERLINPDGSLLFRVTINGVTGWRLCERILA
Text: To develop a conformational GPR3 biosensor that can be used in a microtiter well plate format, we employed the intramolecular BRET design previously validated for several GPCRs. − The BRET donor NanoLuc was fused to the receptor’s full-length C-terminus and the self-labeling protein tag, HaloTag, was inserted into GPR3′s third intracellular loop between amino acids Arg231 and His232 (Figure a; sequence in Figure S1). […]
Plasmids and molecular cloning […]
Plasmids encoding the conformational biosensors α2AAR- and β2AR-HaloTag/Nluc9 and the Gs heterotrimer dissociation sensor10 were previously described. The expression plasmid encoding N-terminally HA-tagged GPR3 (cat. no.
#GPR003TN00) on a pcDNA3.1+ vector was obtained from the cDNA resource center (cdna.org). The Nluc and HaloTag in-serts were amplified with overhanging restriction sites from β2AAR- HaloTag/Nluc and ligated to the full-length C-terminus or inserted into icl3 of GPR3, respectively, to obtain the conformational biosensor GPR3-HaloTag/Nluc. Point mutants of GPR3-HaloTag/Nluc were generated using the GeneArt Site-directed Mutagenesis System (Thermo Fisher Scientific). All con-structs were verified by sequencing (Eurofins genomics). […]
serum albumin (BSA) were obtained from Sigma Aldrich (Merck KGaA). Dulbecco's Modified Eagle's Medium (DMEM), Dul- […]
Diphenyleneiodonium chloride (DPI) and AF64394 were purchased from Tocris (Bio -Techne). The TMB (3, 3', 5, 5' tetramethyl benzidine) substrate reagent set was […]
were obtained in a single kit from Promega (cat. no. N1662). D-luciferin-sodium and the S1PR1 agonist III were from Med-ChemExpress. The Rluc substrate coelenterazine 400a was from NanoLight Technology (cat. no. 340 -10). White -wall, white - bottomed 96 -well, black -wall, black bottomed and transparent 96 -well microtiter plates were from Brand.
HEK293A cells were used for transient transfection and grown in Dulbecco’s modified Eagle’s medium (DMEM) supplemented with 2 mM glutamine, 10 % fetal calf serum, streptomycin (0.1 mg/mL), and penicillin (100 U/mL) at 37 °C with 5 % CO2. For the generation of stable GPR3 -HaloTag/Nluc cells, HEK293A cells grown in T75 flasks were transfected at a confluence of 40 – […]
Absence of mycoplasma contamination was routinely
(§1) Transient transfection and plating
Resuspended cells (300,000 cells/mL) were transfected in suspension with a total of 1 μg DNA/mL suspension using PEI (1 mg/ml stock solution; 3 μL PEI solution per μg DNA). […]
Cells mixed with the transfection reagents were seeded onto poly-D-lysine–precoated, 96-well plates and grown for 48 h at 37 °C with 5 % CO2. Stable α2AAR-, β2AR- or GPR3-HaloTag/Nluc expressing cells were seeded 24 h before the experi-ment at a density of 800,000 cells/mL into white 96-well plates. To monitor changes in BRET in with conformational GPCR […]
experiment. White plates were used for BRET and luminescence measurements, black plates for FRET experiments and trans-parent plates for absorbance-based quantification of receptor surface expression levels.

GPR3 [2] = target: T2, GPR3 (Homo sapiens, UniProt P46089); assay: FRET/BRET cAMP biosensor in HEK293A cells cotransfected with GPR3; format: cell-based; settings: cAMP biosensor; pcDNA vs GPR3 transfected HEK293A
T2 construct: host or cells: HEK293A, transient
T2 sequence (P46089 whole entry): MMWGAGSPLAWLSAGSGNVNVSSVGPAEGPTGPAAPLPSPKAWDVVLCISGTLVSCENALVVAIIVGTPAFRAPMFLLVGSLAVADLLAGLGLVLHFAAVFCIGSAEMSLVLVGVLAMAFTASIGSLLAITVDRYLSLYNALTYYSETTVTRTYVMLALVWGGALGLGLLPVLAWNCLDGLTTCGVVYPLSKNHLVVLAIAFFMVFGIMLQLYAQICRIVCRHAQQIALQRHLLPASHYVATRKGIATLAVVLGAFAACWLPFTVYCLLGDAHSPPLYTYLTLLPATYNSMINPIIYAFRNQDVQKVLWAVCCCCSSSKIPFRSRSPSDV
Text: With the first GPR3 ligands identified by using a conformational readout in our hands, we next wanted to understand whether these compounds could have been detected in a cAMP-based assay, which has been used extensively in the past to screen for GPR3 ligands. We therefore tested rac-VH1/52, VH2/93 and VH3/115 in cells expressing a cAMP biosensor.
3 Effect of rac-VH1/52, VH2/93 and VH3/115 on GPR3-dependent cAMP production. (a–c) Vehicle-corrected BRET changes induced by rac-VH1/52 (a), VH2/93 (b) or VH3/115 (c) in HEK293A cells transiently transfected with a cAMP BRET sensor along with pcDNA or GPR3. […] Statistical significance was tested using Two-Way ANOVA followed by Sidak multiple comparison (*: […]; **: p < 0.01). […]
Plasmids and molecular cloning
The H187-EPAC-FRET sensor7 was kindly provided by K. Jalink (The Netherlands Cancer Institute, Amsterdam, The Nether-lands). The BRET-based cAMP sensor CAMYEL8 was kindly provided by Laura Humphrys (University of Regensburg, Regens-burg, Germany). Plasmids encoding the conformational biosensors α2AAR- and β2AR-HaloTag/Nluc9 and the Gs heterotrimer dissociation sensor10 were previously described. The expression plasmid encoding N-terminally HA-tagged GPR3 (cat. no.
#GPR003TN00) on a pcDNA3.1+ vector was obtained from the cDNA resource center (cdna.org). The Nluc and HaloTag in-serts were amplified with overhanging restriction sites from β2AAR- HaloTag/Nluc and ligated to the full-length C-terminus or inserted into icl3 of GPR3, respectively, to obtain the conformational biosensor GPR3-HaloTag/Nluc. Point mutants of GPR3-HaloTag/Nluc were generated using the GeneArt Site-directed Mutagenesis System (Thermo Fisher Scientific). All con-structs were verified by sequencing (Eurofins genomics).
Poly-D-lysine, polyethylenimin hydrochloride (linear; average Mn 20 000; PEI) , […], LPA , forskolin, NECA and bovine serum albumin (BSA) were obtained from Sigma Aldrich (Merck KGaA). Dulbecco's Modified Eagle's Medium (DMEM), Dul-becco's Phosphate -Buffered Saline (DPBS) and G -418 (Geneticin) were from Gibco. Diphenyleneiodonium chloride (DPI) and AF64394 were purchased from Tocris (Bio -Techne). The TMB (3, 3', 5, 5' tetramethyl benzidine) substrate reagent set was from BioLegend. The Nluc substrate furimazine and the red fluorescen t HaloTag dye, HaloTag® NanoBRET® 618 Ligand, were obtained in a single kit from Promega (cat. no. N1662). D-luciferin-sodium and the S1PR1 agonist III were from Med-ChemExpress. The Rluc substrate coelenterazine 400a was from NanoLight Technology (cat. no. 340 -10). White -wall, white - bottomed 96 -well, black -wall, black bottomed and transparent 96 -well microtiter plates were from Brand.
HEK293A cells were used for transient transfection and grown in Dulbecco’s modified Eagle’s medium (DMEM) supplemented with 2 mM glutamine, 10 % fetal calf serum, streptomycin (0.1 mg/mL), and penicillin (100 U/mL) at 37 °C with 5 % CO2. […]
as §1
Resuspended cells (300,000 cells/mL) were transfected in suspension with a total of 1 μg DNA/mL suspension using PEI (1 mg/ml stock solution; 3 μL PEI solution per μg DNA). For cAMP experiments with FRET- or BRET-based sensors, resuspended cells were transfected with 500 ng pcDNA, wildtype GPR3 or GPR3-HaloTag/Nluc constructs along with 500 ng of the FRET-or BRET-based cAMP sensor per mL cell suspension. For cAMP experiments with GloSensor™ 22F, resuspended cells were transfected with 250 ng pcDNA or GPCR along with 500 ng of a 1:1 mix of pcDNA with the GloSensor™ 22F per mL cell sus-pension. Cells mixed with the transfection reagents were seeded onto poly-D-lysine–precoated, 96-well plates and grown for 48 h at 37 °C with 5 % CO2. Stable α2AAR-, β2AR- or GPR3-HaloTag/Nluc expressing cells were seeded 24 h before the experi-ment at a density of 800,000 cells/mL into white 96-well plates. To monitor changes in BRET in with conformational GPCR […]

β2AR = assay: β2AR-HaloTag/Nluc conformational biosensor (negative control) in HEK293A cells; format: cell-based, human; settings: β2AR-HaloTag/Nluc as negative control; HEK293A stable
Protocol: Initially, all 93 molecules were tested for activity at the GPR3 biosensor at a concentration of 1 μM (Figure a). […] Of the five compounds that emerged from the virtual screen, three–hereafter referred to as virtual hit 1–3, VH1/2/3–were selected for in-house chemical synthesis (compounds 52, 93, and 115; cf. Scheme , Figure S6), providing compounds of ≥99% purity for hit validation (NMR spectra: Figures S7–S142; HPLC purity: Figures S143–S218). For VH1, the racemic mix, rac-VH1/52, was synthesized and used for testing. Compounds 52, VH2/93, and VH3/115 (Figure S6) were then validated with the GPR3 biosensor including β2AR-HaloTag/Nluc as a negative control.
BRET-based GPCR conformational sensor experiments
Cells expressing the conformational GPCR biosensors were grown for 24 h (stable cells) or 48 h (transiently transfected cells) in white 96-well plates and washed with 100 µl of HBSS. After washing, cells were incubated for 2 minutes with a 1/1000 solution of the furimazine stock solution (Promega; cat. no. N1662). Three baseline BRET reads were recorded and averaged prior to the addition of serial dilutions of ligands or veh icle control and subsequent BRET reads. All experiments were con-ducted at 37 °C. BRE T donor emission was quantified with a 470/80 nm monochromator. BRET acceptor emission was quan-tified using a 660/100 nm monochromator. Experiments were carried out using a CLARIOstar plate reader. […]
FRET and BRET ratios were defined as acceptor emission/donor emission. […] To quantify ligand-induced changes ΔFRET and ΔBRET were calculated for each well as a percent over basal ([(Ratiostim − Ratiobasal)/Ratiobasal] × 100). […]
Data from FRET/BRET experiments were fitted using a three-parameter fit. Z-factors expressing the high-throughput suita-bility were calculated with the following equation: […]
Commercially available chemicals and solvents were purchased from standard commercial suppliers (Merck (Darmstadt, Ger-many), Sigma-Aldrich (Munich, Germany), Acros Organics (Geel, Belgium), Alfa Aesar (Karlsruhe, Germany), abcr (Karlsruhe, Germany), BLD Pharmatech (Reinbek, Germany) or TCI Europe (Zwijndrecht, Belgium) and were used as received. Deuter-ated solvents for nuclear magnetic resonance (1H NMR and 13C NMR) spectra were purchased from Deutero GmbH (Kastel-laun, Germany). All reactions carried out with dry solvents were accomplished in dry flasks under nitrogen or argon atmos-phere. For the preparation of buffers, HPLC eluents, and stock solutions millipore water was used. […] The reactions were monitored by thin layer chromatography (TLC) on Merck silica gel 60 F254 aluminium sheets and spots were visualized under UV light at 254 nm, by potassium permanganate or ninhydrin staining. […]

Row | EC50 (GPR3 [1]; transiently expressing HEK293A cells, read-out: EC50 of BRET increase at conformational GPR3 biosensor) [nM] | Structure (SMILES) | BRET response of GPR3 biosensor (direction, words) (GPR3 [1]) | GPR3-dependent change in cAMP (GPR3 [2]) | specificity of conformational response for GPR3 vs β2AR-HaloTag/Nluc (β2AR)
1 | 161 | CC(C)Oc1cc(Cl)ccc1CNc1cc(-c2ccccc2)nc2ncnn12 [AF64394, reference compound] | time- and ligand-concentration-dependent increase in BRET | concentration-dependent reduction of cAMP | –
2 | – | CCCCCCCC/C=C\CCCCCCCC(=O)NCCO [OEA, reference compound] | concentration-dependent decreases in BRET | – | –
3 | – | O=C(C1COc2ccccc2O1)N1CCC(Cn2cncn2)(C2CCCCC2)CC1 (stereo not shown) [compound 93] | – | to a much lesser extent | concentration-dependent and GPR3-specific conformational changes
4 | – | CCCCCCCC/C=C\CCCCCCCC(N)=O [oleamide, reference compound] | concentration-dependent decreases in BRET | – | –
